{"source": "patent US12440502B2", "about": "“Use of thyroid beta-agonists” (priority 2016, dated 2025)", "key": {"[1]": {"test_system": "X-ALD fibroblast cell lines", "assay": "Cell health (proliferation, morphology, death) of treated X-ALD fibroblasts", "format": "cell-based, human", "conditions": "for cell survival of X-ALD cell lines: 100 μM, two X-ALD cell lines; for proliferation and morphology of cells: after 72 hours", "method": "Human primary fibroblasts. Human skin fibroblasts were obtained from X-ALD patients through the Neurology Outpatient Clinic of the Academic Medical Center. Written informed consent was received from each patient. X-ALD diagnosis was confirmed by VLCFA and ABCD1 mutation analysis. Control fibroblasts were obtained from male anonymous volunteers with written informed consent. Fibroblasts were cultured in Dulbecco's modified Eagle's medium (DMEM) with L-glutamine and 4.5 g/L glucose, supplemented with 10% fetal calf serum, 2.5 mM HEPES, 100 U/ml penicillin and 100 U/ml streptomycin. Cells were cultured at 37° C. in a humidified 5% CO2 atmosphere. All fibroblast cell lines used were tested routinely for mycoplasma. All tests were negative.\nPreparation of stock solutions. 10 mM stock solutions in DMSO were prepared by weighing the amount of compound (1 and 3 and their respective active metabolites, 2 and 4) as indicated in Table 2. Stock solutions were stored at room temperature in the dark. For each incubation, the amount of tissue culture medium needed was calculated and a stock solution of tissue culture medium with the final concentration of the to-be-tested compound was prepared. Tissue culture medium was removed from the cells, cells were washed once with PBS and the tissue culture medium with the compounds was added. If an experiment lasted longer than three days, the tissue culture medium and compounds were refreshed (using a fresh preparation) after three days until the end of the experiment.\nTwo different X-ALD fibroblast cell lines were incubated in duplicate with four compounds at three dosages as highlighted in Table 3.\n4 X-ALD cell lines were incubated with 10 μM of 4 compounds 1, 2, 3, and 4. The effect of treatment on ABCD2 expression was analyzed at day 3 and day 10. For the 10 day incubation, tissue culture medium and compounds were refreshed at day 3 and day 6."}, "ABCD1−/− mice [2]": {"test_system": "ABCD1−/− mice", "assay": "Plasma VLCFA-LPC levels in an in vivo model of X-ALD (second cohort)", "design": "species or system mouse", "method": "(§1) Animals. Male ABCD1−/− mice were developed using the Taconic 129SvEv background strain. Animals were housed 3-4/cage under a 12-hour lighting cycle (7 AM-7 PM light) and controlled temperature (22° C.) in the rodent facility. They were fed standard mouse chow and had access to drinking water ad libitum. Mice were between 2 and 3 months of age at the beginning of each study.\n(§2) Study Protocol. Mice were injected once daily intraperitoneal with either drug or vehicle. For blood collection, ˜50 μL of blood was obtained by facial vein puncture using a sterile lancet. Blood was collected in a 1.5 ml microcentrifuge tube containing dried dipotassium EDTA and mixed by gentle inversion at least ten times before storing at −20° C. Blood was obtained in this manner following two, four, and six weeks of treatment. Following blood collection at six weeks, animals were sacrificed by cervical dislocation. Additional blood for preparation of plasma was obtained via cardiac puncture, and blood placed in Microtainer tubes. Brain, spinal cord, adrenal glands, testis, and liver were excised and snap frozen in liquid nitrogen for future analyses.\n(§3) Based on the encouraging results of the initial cohort, a second, larger, cohort was evaluated. A total of 20 mice were randomized 1:1 to receive daily compound 3 or vehicle, by IP administration, for six weeks.\nDuring the second cohort study, blood was obtained as described in the Methods section. At the six week time point sufficient blood was collected to permit plasma VLCFA analyses at weeks two, four and six. Plasma is considered by many to be a more reliable measurement of VLCFA levels, because of reduced analytical interference from other analytes, as well as reduced variability of the measurements."}, "ABCD1−/− mice [3]": {"test_system": "ABCD1−/− mice", "assay": "Whole blood VLCFA-LPC levels in an in vivo model of X-ALD", "design": "species or system mouse", "conditions": "for C26:0-LPC Difference in Mean Change from Baseline / C26:0-LPC % Difference versus Vehicle: initial cohort, whole blood; for Least Squares Mean Change from Baseline Whole Blood C26:0-LPC Levels: second cohort, daily IP", "method": "as §1, §2\nAn initial cohort of 16 mice were randomized 3:1 to receive compound 3 or placebo, once daily for six weeks. […] Treated animals continued to experience progressive declines in C26:0-LPC through six weeks.\nas §3"}, "X-ALD cell lines [4]": {"test_system": "X-ALD cell lines", "assay": "De novo D3-C26:0 synthesis from D3-C22:0 in intact X-ALD cells", "format": "cell-based, human", "conditions": "10 day treatment, 5 X-ALD cell lines", "method": "The effect of treatment on D3-C26:0 synthesis in intact cells. The effect of certain compounds of the invention on the synthesis of D3-C26:0 from D3-C22:0 was measured in cultured skin fibroblasts from controls and X-ALD patients. Cells were seeded at approximately 40% confluency in T75 flasks in DMEM. The next day, medium was replaced with medium containing 30 μM D3-C22:0 and the assayed compounds at their final concentration. […] Each 72 h, the tissue culture medium and compounds was refreshed. At the end of the experiment cells were harvested and VLCFA analyzed as described (Valianpour et al., Molecular Genetics and Metabolism, 79: 189-196 (2003)).\n(§4) VLCFA measurement. VLCFA were analyzed by electrospray ionization mass spectrometry (ESI-MS) as described (Valianpour et al., Molecular Genetics and Metabolism, 79: 189-196 (2003)).\n(§5) 5 different X-ALD cell lines were incubated for 6 days with compounds 1, 2, 3, and 4 at 10 μM, 5 mM 4PBA (sodium 4-phenylbutyrate), or 0.1 μM sobetirome. On Day 6, 30 μM D3C22:0 was added to assess the effect of treatment on beta-oxidation and de novo D3C26:0 synthesis. 6 untreated control cells as well as 5 different untreated X-ALD cells were included to allow assessment of the treatment effect. The total set consisted of 41 experiments"}, "X-ALD cell lines [5]": {"test_system": "X-ALD cell lines", "assay": "D3-C22:0 (VLCFA) beta-oxidation in intact X-ALD cells", "format": "cell-based, human", "conditions": "0.1 μM; 10 day treatment; 5 X-ALD cell lines", "method": "The effect of treatment on D3-C22:0 beta-oxidation in intact cells. Peroxisomal beta-oxidation activity was measured essentially as described by incubating cells with 30 μM deuterium-labeled C22:0 (D3-C22:0) (Kemp et al., Clinical Chemistry 50: 1824-1826 (2004)). Cells were seeded at approximately 40% confluency in T75 flasks in DMEM. The next day, medium was replaced with medium containing 30 μM D3-C22:0 and assayed compounds at their final concentration. […] Each 72 h, the tissue culture medium and compounds was refreshed. At the end of the experiment cells were harvested and VLCFA analyzed as described (Valianpour et al., Molecular Genetics and Metabolism, 79: 189-196 (2003)).\nas §4, §5"}}}
{"compound": "Cc1cc(OC[P@@]2(=O)OCC[C@@H](c3cccc(Cl)c3)O2)cc(C)c1Cc1ccc(O)c(C(C)C)c1", "note": "[Compound 1]", "values": [{"measurement": "cell survival of X-ALD cell lines", "setting": "[1]", "result": "dead within 24 hours"}, {"measurement": "proliferation and morphology of cells", "setting": "[1]; 0.1 or 10 μM", "result": "looked healthy"}]}
{"compound": "Cc1cc(OCP(=O)(O)O)cc(C)c1Cc1ccc(O)c(C(C)C)c1", "note": "[Compound 2]", "values": [{"measurement": "proliferation and morphology of cells", "setting": "[1]; 0.1, 1 or 10 μM", "result": "looked healthy"}]}
{"compound": "Cc1cc(OCP(=O)(OCOC(=O)C(C)(C)C)OCOC(=O)C(C)(C)C)cc(C)c1Cc1ccc(O)c(Cc2ccccc2)c1", "note": "[Compound 3]", "values": [{"measurement": "Plasma C20:0-LPC % Difference vs. Vehicle", "setting": "ABCD1−/− mice [2]; week 6, p<0.0001", "result": "−54", "unit": "%"}, {"measurement": "Plasma C22:0-LPC % Difference vs. Vehicle", "setting": "ABCD1−/− mice [2]; week 6, p<0.0001", "result": "−43", "unit": "%"}, {"measurement": "Plasma C26:0-LPC % Difference vs. Vehicle", "setting": "ABCD1−/− mice [2]; week 6, p<0.0001", "result": "−29", "unit": "%"}, {"measurement": "Plasma C24:0-LPC % Difference vs. Vehicle", "setting": "ABCD1−/− mice [2]; week 6, p<0.005", "result": "−21", "unit": "%"}, {"measurement": "C20:0-, C22:0-, and C24:0-LPC levels", "setting": "ABCD1−/− mice [3]; after six weeks of treatment", "result": "significant reductions"}, {"measurement": "C26:0-LPC Difference in Mean Change from Baseline", "setting": "ABCD1−/− mice [3]; week 2", "result": -0.052, "unit": "µM"}, {"measurement": "C26:0-LPC % Difference versus Vehicle", "setting": "ABCD1−/− mice [3]; week 2, p NS", "result": 0, "unit": "%"}, {"measurement": "C26:0-LPC Difference in Mean Change from Baseline", "setting": "ABCD1−/− mice [3]; week 4", "result": -0.081, "unit": "µM"}, {"measurement": "C26:0-LPC % Difference versus Vehicle", "setting": "ABCD1−/− mice [3]; week 4, p NS", "result": "−11", "unit": "%"}, {"measurement": "C26:0-LPC % Difference versus Vehicle", "setting": "ABCD1−/− mice [3]; week 6, p<0.0001", "result": "−40", "unit": "%"}, {"measurement": "Least Squares Mean Change from Baseline Whole Blood C26:0-LPC Levels", "setting": "ABCD1−/− mice [3]; week 2, p NS versus vehicle", "result": -0.021, "unit": "µM"}, {"measurement": "Least Squares Mean Change from Baseline Whole Blood C26:0-LPC Levels", "setting": "ABCD1−/− mice [3]; week 4, p<0.01 versus vehicle", "result": -0.096, "unit": "µM"}, {"measurement": "Least Squares Mean Change from Baseline Whole Blood C26:0-LPC Levels", "setting": "ABCD1−/− mice [3]; week 6, p<0.005 versus vehicle", "result": -0.12, "unit": "µM"}, {"measurement": "cell survival of X-ALD cell lines", "setting": "[1]", "result": "dead within 24 hours"}, {"measurement": "proliferation and morphology of cells", "setting": "[1]; 0.1 or 10 μM", "result": "looked healthy"}]}
{"compound": "O=C([O-])CCCc1ccccc1.[Na+]", "note": "[Compound 4PBA, sodium 4-phenylbutyrate]", "values": [{"measurement": "VLCFA synthesis", "setting": "X-ALD cell lines [4]; 5 mM", "result": "near normal levels"}]}
{"compound": "Cc1cc(OCP(=O)(O)O)cc(C)c1Cc1ccc(O)c(Cc2ccccc2)c1", "note": "[Compound 4]", "values": [{"measurement": "proliferation and morphology of cells", "setting": "[1]; 0.1, 1 or 10 μM", "result": "looked healthy"}]}
{"compound": "Cc1cc(OCC(=O)O)cc(C)c1Cc1ccc(O)c(C(C)C)c1", "note": "[sobetirome]", "values": [{"measurement": "effect on VLCFA beta-oxidation", "setting": "X-ALD cell lines [5]", "result": "did not show any beneficial effect"}, {"measurement": "effect on VLCFA de novo synthesis", "setting": "X-ALD cell lines [4]; 0.1 μM", "result": "did not show any beneficial effect"}]}
